{
  "source": "paper PMC13510729",
  "about": "“Multiheme selenoenzyme essential for elemental sulfur respiration” (Science Advances, 2026)",
  "test_system": "T1, MccSep",
  "T1 construct": "selenoprotein read through an in-frame UGA (Sec325) joining gsu2937 and gsu2936, databases may hold it as two ORFs; C-terminal Factor Xa site and Strep-tag; expressed in G. sulfurreducens PCA delta-mccsep; five heme c per subunit; about 49 kDa; homotetramer of 200 kDa",
  "assay": "spectrophotometric oxidation of reduced methyl viologen at […] nm, allosteric sigmoidal fit",
  "format": "biochemical, Geobacter sulfurreducens",
  "settings": "reduced methyl viologen (0.3 mM) with 0.075 mM dithionite, 2 mM CaCl2, 50 mM Bicine-NaOH pH 8.5, 30 °C, anaerobic; Hill coefficient 1.5 ± 0.1; read-out: apparent K0.5",
  "data": [
    {"smiles": "O=[Se](O)O", "note": "[selenite]", "values": [
      {"measurement": "Km", "value": "990 ± 40", "unit": "µM"}
    ]}
  ]
}
